The values that follow are results of earlier work, collected in publication PMC3325405 (Amino Acids, 2011).

The target in the series is Klebsiella aerogenes enzyme (urease). Particulars: read-out: K i, Klebsiella aerogenes urease; ref Todd 1989.

Structures are written as SMILES.

For the molecule `CC(=O)NO` [AHA, acetohydroxamic acid], the Ki is 2600 nM.
